Like-named read-outs stand apart in the source and are kept apart here. One block for each compound: values may come before it.
Assays:
[1] = Pharmacokinetics of dihydroartemisinin (DHA), active metabolite, in plasma after multiple intravenous AS doses, non-compartmental analysis; assay type: in vivo, human; settings: for Total AUCD1-D3: DHA, days 1-3; for AUC: Mean AUC of DHA, range over doses, AS 2-8 mg/kg iv
Experimental: The study was a double blind, ascending multiple doses, alternating group, safety, tolerance, and PK study. […] When the injection was completed, the study nurse recorded tolerance of injection to include both inspection of site and subjects’ responses. Subjects were provided a light lunch at approximately 4 hours after dosing. Normal activities, excluding strenuous exercise, were permitted four hours after dosing. […] During the multiple-dose period, samples were collected immediately before morning dose on days 2 and 3 for additional trough values. All the samples were stored at −80 °C until shipment and were then shipped to a bio-analytical GLP laboratory, Midwest Research Institute (MRI), in Kansas City, MO, USA. The human use protocol numbers for the Phase 1 trial are: USUHS #G183RW; WRIAR #1128; and HSRRB #A-13276.
The analytes were extracted from human plasma with ethyl acetate. […] The reconstituted extracts were analysed on a Micromass Quattro II Mass Spectrometer in the positive ion electrospray ionization (+ESI) mode. […] This method employed a Varian Pursuit C18 column (150 x 2.0 mm, 5-μm particle size) and a gradient elution with the following mobile phases: A: 10 mM ammonium acetate in water with 1% formic acid and B: 10 mM ammonium acetate in acetonitrile with 1% formic acid, for the chromatographic separation.
Calibration standards and QC samples were analysed to evaluate the performance of the assay.
The maximum concentration in plasma for each subject was read directly from the experimental values. […] The values of the following PK parameters were derived by a non-compartmental method: the half-life (t½); mean residence time (MRT); the AUC from time zero to the last sampling time (AUCt); the AUC from time zero extrapolated to infinity (AUCinf); relative total systemic clearance (CL/F_obs); and volume of distribution during steady state (Vss/F_obs). A drug accumulation index was estimated from the AUC value on day 3 divided by the AUC value on day 1 (first multiple dose administration).

[2] = tested on: asexual blood stage parasites; settings: cited from earlier work
[3] = tested on: severe falciparum malaria; settings: SEAQUAMAT, severe malaria patients, intravenous treatment; cited from earlier work
[4] = human, plasma, intravenous, all days and dose cohorts

Mean peak concentrations of DHA over the three days, range ([1]; 4 mg/kg cohort): 2923 to 3018 ng/mL | Mean peak concentrations of DHA over the three days, range ([1]; 8 mg/kg cohort): 5762 to 6056 ng/mL | Total AUCD1-D3 ([1]; AS 2 mg/kg iv daily for 3 days, mean (CV%), n = 6): 6520 (18) | Total AUCD1-D3 ([1]; AS 4 mg/kg iv daily for 3 days, mean (CV%), n = 6): 12092 (20) | Total AUCD1-D3 ([1]; AS 8 mg/kg iv daily for 3 days, mean (CV%), n = 6): 27635 (34) | time DHA detected in plasma ([1]; after each short-term infusion of AS, all volunteers): until six hours | AUC(0-inf) ([1]; human, plasma, intravenous, 2 mg/kg, Mean AUCinf of DHA over three days, range, 2 mg/kg cohort): 2020 to 2380 ng·h/mL | AUC(0-inf) ([1]; human, plasma, intravenous, 4 mg/kg, Mean AUCinf of DHA over three days, range, 4 mg/kg cohort): 3740 to 4390 ng·h/mL | AUC(0-inf) ([1]; human, plasma, intravenous, 8 mg/kg, Mean AUCinf of DHA over three days, range, 8 mg/kg cohort): 8730 to 9700 ng·h/mL | CL/F [1, 4]: 14.6 to 19.4 mL/min/kg | Tmax [1, 4]: 0.16 to 0.29 h | Cmax ([1]; human, plasma, iv, 2 mg/kg): 1740 ng/mL | MRT ([1]; human, plasma, iv, 2 mg/kg, Day 1, DHA after AS 2 mg/kg iv daily for 3 days, 2 min infusion, mean (CV%), n = 6, NCA): 1.41 h | AUC(0-inf) ([1]; human, plasma, iv, 2 mg/kg, Day 1, DHA after AS 2 mg/kg iv daily for 3 days, 2 min infusion, mean (CV%), n = 6, NCA, read-out: AUCinf): 2120 ng·h/mL | half-life ([1]; human, plasma, iv, 2 mg/kg, Day 1, DHA after AS 2 mg/kg iv daily for 3 days, 2 min infusion, mean (CV%), n = 6, NCA, read-out: t1/2 elimination (converted)): 1.19 h | MRT ([1]; human, plasma, iv, 2 mg/kg, Day 3, DHA after AS 2 mg/kg iv daily for 3 days, 2 min infusion, mean (CV%), n = 6, NCA): 1.39 h | Tmax ([1]; human, plasma, iv, 2 mg/kg, read-out: Tmax): 0.29 h | Cmax ([1]; human, plasma, iv, 4 mg/kg): 3020 ng/mL | MRT ([1]; human, plasma, iv, 4 mg/kg, Day 1, DHA after AS 4 mg/kg iv daily for 3 days, 2 min infusion, mean (CV%), n = 6, NCA): 1.91 h | AUC(0-inf) ([1]; human, plasma, iv, 4 mg/kg, Day 1, DHA after AS 4 mg/kg iv daily for 3 days, 2 min infusion, mean (CV%), n = 6, NCA, read-out: AUCinf): 4390 ng·h/mL | half-life ([1]; human, plasma, iv, 4 mg/kg, Day 1, DHA after AS 4 mg/kg iv daily for 3 days, 2 min infusion, mean (CV%), n = 6, NCA, read-out: t1/2 elimination (converted)): 1.74 h | MRT ([1]; human, plasma, iv, 4 mg/kg, Day 3, DHA after AS 4 mg/kg iv daily for 3 days, 2 min infusion, mean (CV%), n = 6, NCA): 1.57 h | AUC(0-inf) ([1]; human, plasma, iv, 4 mg/kg, Day 3, DHA after AS 4 mg/kg iv daily for 3 days, 2 min infusion, mean (CV%), n = 6, NCA, read-out: AUCinf): 3960 ng·h/mL | half-life ([1]; human, plasma, iv, 4 mg/kg, Day 3, DHA after AS 4 mg/kg iv daily for 3 days, 2 min infusion, mean (CV%), n = 6, NCA, read-out: t1/2 elimination (converted)): 1.24 h | Tmax ([1]; human, plasma, iv, 4 mg/kg, read-out: Tmax): 0.25 h | Cmax ([1]; human, plasma, iv, 8 mg/kg): 6060 ng/mL | MRT ([1]; human, plasma, iv, 8 mg/kg, Day 1, DHA after AS 8 mg/kg iv daily for 3 days, 2 min infusion, mean (CV%), n = 6, NCA): 1.81 h | AUC(0-inf) ([1]; human, plasma, iv, 8 mg/kg, Day 1, DHA after AS 8 mg/kg iv daily for 3 days, 2 min infusion, mean (CV%), n = 6, NCA, read-out: AUCinf): 9700 ng·h/mL | half-life ([1]; human, plasma, iv, 8 mg/kg, Day 1, DHA after AS 8 mg/kg iv daily for 3 days, 2 min infusion, mean (CV%), n = 6, NCA, read-out: t1/2 elimination (converted)): 1.42 h | MRT ([1]; human, plasma, iv, 8 mg/kg, Day 3, DHA after AS 8 mg/kg iv daily for 3 days, 2 min infusion, mean (CV%), n = 6, NCA): 1.78 h | AUC(0-inf) ([1]; human, plasma, iv, 8 mg/kg, Day 3, DHA after AS 8 mg/kg iv daily for 3 days, 2 min infusion, mean (CV%), n = 6, NCA, read-out: AUCinf): 9200 ng·h/mL | half-life ([1]; human, plasma, iv, 8 mg/kg, Day 3, DHA after AS 8 mg/kg iv daily for 3 days, 2 min infusion, mean (CV%), n = 6, NCA, read-out: t1/2 elimination (converted)): 1.34 h | half-life ([1]; human, plasma, iv, 8 mg/kg, mean elimination half-life of DHA, range, range of means over three days and AS 2, 4, 8 mg/kg iv doses): 1.23 to 1.63 h | Tmax ([1]; human, plasma, iv, 8 mg/kg, read-out: Tmax): 0.25 h | AUC ([1]; human, plasma, iv, day 1): 2120 to 9700 ng·h/mL | AUC ([1]; human, plasma, iv, day 3): 2380 to 9200 ng·h/mL | mean elimination half-life of DHA, range ([1]; range of means over three days and AS 2, 4, 8 mg/kg iv doses): 1.19 to 1.91 h
SMILES: C[C@H]1[C@@H](O)O[C@@H]2O[C@@]3(C)CC[C@H]4[C@H](C)CC[C@@H]1[C@@]24OO3 [DHA, dihydroartemisinin]
time to complete inhibition of parasite growth [2]: within two to four hours

SMILES: C=C[C@H]1C[N@@]2CC[C@H]1C[C@H]2[C@H](O)c1ccnc2ccc(OC)cc12 [quinine]
mortality rate [3]: 22%
